According to the supplement of paper PMC10949913:

Legend:
Conditions in all cases: 48 h
NCI-H295R [1] = assay: area under concentration-response curve (viability) (AUC (a.u.)); higher = less active
How it was run: (§1)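 Library compounds were dispensed at 11 concentrations (23 nL each) onto three adrenocortical carcinoma cell lines in 1,536-well plates. Luminescence was recorded after 48 h using CellTiter-Glo, and signals were normalised per plate to vehicle and empty-well controls. Fitted concentration-response curves of inhibitory or non-responding classes only supplied the AC50 and area under the curve.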

CU-ACC2 [2] = assay: as above
How it was run: as §1

CU-ACC1 [3] = assay: as above
How it was run: as §1

NCI-H295R [4] = assay: AC50 viability; higher = less potent
How it was run: as §1

CU-ACC2 [5] = assay: AC50 viability; higher = less potent
How it was run: as §1

CU-ACC1 [6] = assay: AC50 viability; higher = less potent
How it was run: as §1

Row | SMILES | area under concentration-response curve (NCI-H295R [1]) | area under concentration-response curve (CU-ACC2 [2]) | area under concentration-response curve (CU-ACC1 [3]) | AC50 viability (NCI-H295R [4]) [µM] | AC50 viability (CU-ACC2 [5]) [µM] | AC50 viability (CU-ACC1 [6]) [µM]
1 | CCCCNc1ncc2c(-c3ccc(CN4CCN(C)CC4)cc3)cn([C@H]3CC[C@H](O)CC3)c2n1 | 481 | 544 | 476 | 10.5 | 7.42 | 16.6
2 | CN1CCCN(C(=O)c2cccc(-c3ccc(/C=C4/C(=O)Nc5ccc(Cl)cc54)o3)c2)CC1 | 361 | 379 | 392 | 20.9 | 23.5 | 29.5
3 | C[C@@H]1C[C@@H]([C@H](O)CC2CC(=O)NC(=O)C2)C(=O)[C@@H](C)C1 | 405 | 333 | 345 | 2.95 | 0.59 | 1.05
4 | Cc1cc(Nc2cc(CN3CCOCC3)c3nc(C)c(Cc4ccc(Cl)cc4F)n3n2)[nH]n1 | 420 | 439 | 440 | 23.5 | 18.6 | 37.2
5 | CC(C)C1=C(O)C=C(O)C(=C1)C/2=N/NC(=O)N2C3=CC4=C(C=C3)[N](C)C=C4 | 416 | 309 | 322 | 0.132 | 0.0186 | 0.0934
6 | COc1cc(N[S+](C)(=O)[O-])ccc1Nc1c2ccccc2nc2ccccc12 | 420 | 409 | 299 | 13.2 | 7.42 | 13.2
7 | CC[C@H]1/C=C\C=C/C[C@@H](C)[C@H](O)[C@@](C)(O)C(=O)[C@@H](C)[C@H](O)[C@@H](C)C(=O)[C@@H](C)[C@H](O)[C@@H](C)/C=C/C(=O)O[C@@H]2[C@H](C)[C@H](CC1)O[C@]1(CC[C@H](C)[C@H](C[C@@H](C)O)O1)[C@H]2C | 326 | 402 | 193 | 1.32 | 7.42 | 0.00186
8 | Cc1cc(OCCCc2c3n(c4c(-c5c(C)nn(C)c5C)c(Cl)ccc24)[C@H](C)CN(c2cn(C)c4ccc(C(=O)O)cc24)C3=O)cc(C)c1Cl | 445 | 570 | 367 | 2.95 | 16.6 | 16.6
9 | C=CC(=O)Nc1cccc(Sc2nc(Nc3ccc(N4CCN(C)CC4)cc3)ncc2Cl)c1 | 375 | 388 | 342 | 4.68 | 4.17 | 4.68
10 | CCN1CCN(Cc2ccc(-c3cc4c(N[C@H](C)c5ccccc5)ncnc4[nH]3)cc2)CC1 | 492 | 534 | 452 | 18.6 | 23.5 | 23.5
11 | C=CC(=O)Nc1cc(Nc2nccc(-c3cn(C)c4ccccc34)n2)c(OC)cc1N(C)CCN(C)C | 408 | 432 | 393 | 9.34 | 10.5 | 9.34
12 | C=CC(=O)N1CC/C(=C\c2ccc(F)c([N+](=O)[O-])c2)C(=O)/C(=C/c2ccc(F)c([N+](=O)[O-])c2)C1 | 333 | 342 | 318 | 0.209 | 0.148 | 0.263
13 | CCCC1(CCC)CCC2(CCN(CCCN(CC)CC)C2)CC1 | 448 | 516 | 309 | 4.17 | 6.61 | 4.68
14 | COc1cc(N2CCC(N(C)C)CC2)ccc1Nc1ncc(Cl)c(Nc2ccccc2P(C)(C)=O)n1 | 426 | 419 | 424 | 3.72 | 5.25 | 7.42
15 | CCN(CC)Cc1ccc2cc(COC(=O)Nc3ccc(C(=O)NO)cc3)ccc2c1 | 382 | 390 | 365 | 9.34 | 4.68 | 3.72
16 | COc1cc(N2CCC(N3CCN(C)CC3)CC2)ccc1Nc1ncc(Cl)c(Nc2ccccc2P(C)(C)=O)n1 | 409 | 398 | 383 | 2.63 | 1.32 | 2.09
17 | C=CCNC1=C2C[C@@H](C)C[C@H](OC)[C@H](O)[C@@H](C)/C=C(\C)[C@H](OC(N)=O)[C@@H](OC)/C=C\C=C(/C)C(=O)NC(=CC1=O)C2=O | 515 | 418 | 433 | 37.2 | 13.2 | 10.5
18 | CCN1CCN(Cc2ccc(NC(=O)Nc3ccc(Oc4cc(NC)ncn4)cc3)cc2C(F)(F)F)CC1 | 494 | 526 | 436 | 11.8 | 10.5 | 9.34
19 | O=C(/C=C/C#Cc1cccc(N[S+](=O)([O-])c2ccccc2)c1)NO | 542 | 544 | 497 | 4.56 | 6.45 | 4.07
20 | CC[C@@]1(O)C(=O)OC\C2=C1\C=C\3N(CC4=C3N=C5C=CC=CC5=C4)C2=O | 443 | 424 | 363 | 1.48 | 0.742 | 1.66
21 | C=CC(=O)Nc1cccc(Oc2nc(Nc3ccc(N4CCN(C)CC4)cc3OC)ncc2Cl)c1 | 502 | 526 | 442 | 9.34 | 7.42 | 8.33
22 | CCC(=O)N1CCN(CC1)C2=C(C=C(C=C2)N3C(=O)\C=C/C4=C3C5=CC(=CC=C5N=C4)C6=CN=C7C=CC=CC7=C6)C(F)(F)F | 326 | 362 | 305 | 0.129 | 0.0456 | 0.0102
23 | CN1CCN(C(=O)c2ccc3cc(CCNc4ncnc5ccc(C#N)cc45)ccc3c2)CC1 | 436 | 499 | 397 | 2.95 | 16.6 | 4.17
24 | CN(C)c1cc2c(cc1Sc1nc3c(N)nccc3n1CCNCC(C)(C)C)OCO2 | 467 | 499 | 391 | 2.35 | 2.95 | 2.95
25 | COCCN1CCN(Cc2ccc(-c3n[nH]c4c3C(=O)c3c(NC(=O)NN5CCOCC5)cccc3-4)cc2)CC1 | 372 | 295 | 301 | 0.833 | 0.148 | 0.468
26 | Cc1n[nH]c2ccc(-c3cncc(OC[C@@H](N)Cc4c[nH]c5ccccc45)c3)cc12 | 351 | 360 | 318 | 2.95 | 2.09 | 1.66

Row | SMILES | area under concentration-response curve (NCI-H295R [1]) | area under concentration-response curve (CU-ACC2 [2]) | area under concentration-response curve (CU-ACC1 [3]) | AC50 viability (NCI-H295R [4]) [µM] | AC50 viability (CU-ACC2 [5]) [µM] | AC50 viability (CU-ACC1 [6]) [µM]
27 | CNCCCC12CCC(c3ccccc31)c1ccccc12 | 464 | 564 | 488 | 16.6 | 23.5 | 23.5
28 | NC(=O)c1cccc2c(NC(CN3CCC3)c3ccc(Cl)c(C(F)(F)F)c3)ncnc12 (configuration not stated) | 223 | 160 | 266 | 1.18 | 0.332 | 0.263
29 | CC(C)(O)CC(=O)NCCn1ccc2ncnc(Nc3ccc(Oc4cccc(C(F)(F)F)c4)c(Cl)c3)c21 | 443 | 472 | 465 | 20.9 | 23.5 | 20.9
30 | COc1ccc(F)c(F)c1C(=O)c1cnc(NC2CCN([S+](C)(=O)[O-])CC2)nc1N | 435 | 364 | 409 | 4.68 | 1.48 | 2.35
31 | C=CCNc1c(O)cc2c(O)c1C[C@@H](C)C[C@H](OC)[C@H](O)[C@@H](C)/C=C(/C)[C@H](OC(N)=O)[C@@H](OC)/C=C\C=C(\C)C(=O)N2 | 419 | 335 | 335 | 14.8 | 0.525 | 2.95
32 | CN[C@H]1CC[C@@H](c2ccc(Cl)c(Cl)c2)c2ccccc21 | 394 | 438 | 386 | 11.8 | 16.6 | 10.5
33 | Cc1ccc(-c2ccc3ncc4c(c3n2)n(C2CCN(C(=O)[C@H](C)O)CC2)c(=O)n4C)cn1 | 394 | 492 | 363 | 0.295 | 0.263 | 0.263
34 | c1cc(-c2cnn3cc(-c4ccc(OCCN5CCCCC5)cc4)cnc23)ccn1 | 450 | 456 | 404 | 10.5 | 9.34 | 11.8
35 | CCNC(=O)C#Cc1ccc2c(c1)NC(=O)/C2=C(\Nc1ccc(CN(C)C)cc1)c1ccccc1 | 524 | 536 | 443 | 2.57 | 2.88 | 0.91
36 | NC(CO)(CO)CCc1ccc(Sc2cccc(OCc3ccccc3)c2)cc1Cl | 449 | 491 | 423 | 10.5 | 18.6 | 14.8
37 | COc1cc2c(NC3CCN(CC4CCCCC4)CC3)nc(N3CCCN(C(C)C)CC3)nc2cc1OCCCN1CCCCC1 | 449 | 485 | 426 | 16.6 | 10.5 | 20.9
38 | Clc1ccc(C(c2ccc(Cl)cc2)[n+]2ccn(CC(OCc3ccc(Cl)cc3Cl)c3ccc(Cl)cc3Cl)c2)cc1 (configuration not stated) | 445 | 528 | 442 | 8.33 | 11.8 | 13.2
39 | CC[S+]([O-])(=O)NC1=CC(=C(OC2=C(F)C=C(F)C=C2)C=C1)\C3=C\N(C)C(=O)C4=C3C=C[NH]4 | 463 | 493 | 416 | 5.9 | 13.2 | 10.5
40 | COc1cccc2cc(-c3nc([C@H]4CC[C@H](C(=O)O)CC4)n4ncnc(N)c34)[nH]c12 | 492 | 466 | 454 | 5.9 | 10.5 | 4.17
41 | C=CC(=O)Nc1cccc(Nc2nc(Nc3ccc(Oc4ccnc(C(=O)NC)c4)cc3)ncc2F)c1 | 467 | 596 | 464 | 16.6 | 23.5 | 29.5
42 | CN(C)CCOc1ccc(-c2nc(-c3ccncc3)c(-c3ccc4c(c3)CC/C4=N\O)[nH]2)cc1 | 440 | 521 | 398 | 14.8 | 20.9 | 16.6
43 | CCN1C(=O)\C(=C/C2=C(C)N=C(N)N=C12)C3=CC=N[NH]3 | 431 | 455 | 397 | 5.25 | 3.32 | 4.17
44 | Cc1ccc(NC(=O)c2ccc(CN3CCN(C)CC3)cc2)cc1Nc1nc(-c2cccnc2)cs1 | 547 | 586 | 503 | 18.6 | 23.5 | 23.5
45 | COc1ccc2c(c[n+](C)c3c4cc5c(cc4ccc23)OCO5)c1OC | 402 | 465 | 445 | 20.9 | 33.2 | 20.9
46 | COCCOc1nc(-c2ccc(Cl)c(Cl)c2)n(-c2ccc(NC(=O)CCl)cc2)n1 | 391 | 415 | 383 | 3.72 | 3.72 | 5.25
47 | C=CC(=O)Nc1ccc2ncnc(Nc3cccc(Br)c3)c2c1 | 409 | 375 | 360 | 0.372 | 14.8 | 13.2
48 | CC(=O)c1ccc2c(c1)c1cc(C(C)=O)ccc1n2CCNC(C)C | 421 | 415 | 405 | 2.35 | 2.95 | 2.09
49 | N=c1c2c(-c3ccccc3)c(-c3ccccc3)n(Cc3ccccc3)c2ncn1[C@H]1CC[C@H](O)CC1 | 491 | 531 | 341 | 18.6 | 18.6 | 18.6
50 | CCC(C1CCC(C)C(O1)C(C)C(O)C(C)C(=O)C(CC)C2OC\3(O[C@]4(CC[C@@](C)(O4)C5CC[C@@](O)(CC)C(C)O5)C(O)\C=C3)C(C)CC2C)C([O-])=O (some centres not stated) | 456 | 473 | 291 | 8.33 | 5.9 | 5.25
51 | CC/1=C/C[C@]23O[C@@]2(C)CC[C@@H]4[C@H](OC(=O)C4=C)[C@@H]13 | 435 | 509 | 447 | 18.6 | 16.6 | 14.8
52 | O=C(c1ccc(Nc2nccc(-c3cc4ccccc4s3)n2)cc1)N1CCC(N2CCCC2)CC1 | 462 | 521 | 446 | 6.61 | 7.42 | 9.34
